Laboratory results as given in patent publication US10590166B2, “Peptides useable for treating cancer” (Allegro Pharmaceuticals, LLC, priority 2009, dated 2020).
Several values for one entry are separate records, joined by “and”; a condition that tells them apart may be missing. Identical values can stand only once. Like-named read-outs stand apart in the source and are kept apart here. Square brackets hold non-standard residues; d marks the D form. Peptide text beside a SMILES is read from it. Cya = N[CH](CS(=O)(=O)O)C(=O)O

Legend:
[1] = test system: Pigmented New Zealand Rabbits; assay: Ocular toxicity dose escalation, multiple intravitreal injections of Compound 1 (Table E); assay type: in vivo; conditions: up to 3 intravitreal injections of 2.5, 5.0 or 10.0 mg/100 μL
[2] = test system: human subjects with diabetic macular edema; assay type: in vivo; conditions: for persistence of improvements in BCVA and OCT central macular thickness off treatment: follow up after the last intravitreal treatment
Protocol: Fifteen human patients with late stage DME received three monthly intravitreal injections of Compound 1 as part of a multiple-injection Phase 1 Human Safety Study. […] While this study was firstly a safety study, efficacy was also assessed. Eight of the patients patients improved three or more lines in BCVA (representing 53% of the treated patients) and four of the patients improved from nearly legally blind to functional vision in the 20/40 to 20/60 range. […] These improvements in BCVA and OCT central macular thickness persisted for 90 days of follow up off treatment.
The objective of the Phase 1 study was to evaluate the safety and initial efficacy of the ophthalmic intravitreal injection of COMPOUND 1 in human subjects with end stage diabetic macular edema (DME). The primary endpoint of this study was the observation of dose limiting toxicity. A secondary endpoint of this study was observation of a clinical benefit in reducing the diabetic macular edema in BCVA (ETDRS lines) and OCT central macular thickness.
Fifteen human subjects with chronic end-stage DME completed this open label study. Subjects at enrollment had BCVA of 20/100 or worse primarily due to DME and had not undergone anti-VEGF treatment or focal laser within 90 days prior to enrollment. Many study subjects were refractory to previous Avastin treatments. Study subjects received three monthly intravitreal injections of 2.5 mg COMPOUND 1 and were followed monthly for an additional 3 months. Safety measurements were followed by BCVA, slit lamp evaluation, dilated fundus exam, 10P measurements, OCT, FA, Fundus Photos, B-scan ultrasound, and ERG.

rho/VEGF mice = assay: Subretinal neovascularization in transgenic rho/VEGF mice expressing human VEGF; assay type: in vivo; conditions: 25 μg, single intraocular injection, seven days post-dose, 3 animals
Protocol: Transgenic mice in which the rhodopsin promoter drives expression of human VEGF in photoreceptors (rho/VEGF mice) were randomized into separate treatment groups and studies were performed to provide the following comparisons:
Pretreatment measurements of the area of subretinal neovascularization were made on each animal using image analysis by a masked observer. Each animal received its designated treatment in a single intraocular injection. Seven days post-dose, measurements of the area of subretinal neovascularization were again made and compared to the pre-dose measurements to determine the change in subretinal neovascularization area. Also, the animals were sacrificed and the retinas were dissected, immunostained with GSA lectin and examined by fluorescence microscopy.

[3] = test system: human umbilical vein endothelial cells (HUVEC); assay: wound-healing assay with HUVEC on fibronectin coated surface; assay type: cell-based
Protocol: To test the anti-adhesive properties of RGCysteic Acid peptides in vitro, a wound-healing assay was performed with human umbilical vein endothelial cells (HUVEC). HUVEC were seeded and allowed to grow to a confluent monolayer on a fibronectin coated surface. A wound (a scratch rift) was created by dragging a small pipette tip across the HUVEC monolayer. The cells were then incubated in fresh growth medium containing the RGCysteic Acid peptide (Compound 1; 10 mM), and the wound area was imaged in five different fields at various time points (0, 4, 8, 12, 16, 20, 24 hours) to determine the kinetics of wound closure. The level of wound closure was quantified by determining the fraction of the original wound area that was re-occupied by HUVEC through cellular adhesion, migration and proliferation.
In control studies, the following peptides were used in place of RGCysteic Acid (Compound 1): cyclic-RGD peptide (1 mM), positive control) and RGE peptide (1 mM, negative control).
The results are shown as a percentage of the original area. The error bars correspond to the standard deviation in wound size across 2-6 independent trials.

[4] = 15 DME patients, three monthly intravitreal injections of 2.5 mg
[5] = 15 DME patients, three monthly intravitreal injections of 2.5 mg, listed as COMPOUND 1

CC(O)C(NC(=O)C(CS(=O)(=O)O)NC(=O)CNC(=O)C(CCCNC(=N)N)NC(=O)CN)C(=O)N1CCCC1C(=O)O (stereo not shown) [Compound 1, Glycinyl-Arginyl-Glycinyl-Cysteic-Threonyl-Proline-COOH] (H-GRG[Cya]TP-OH; configuration not given here)
Tonometry, average for treated eyes [1]: 12.7 mmHg average
Ocular toxicity: RPE toxicity ([1]; sacrifice Day 7, 37 or 90): No RPE toxicity
Ocular toxicity: cataract formation ([1]; sacrifice Day 7, 37 or 90): No cataract
Ocular toxicity: exudates ([1]; sacrifice Day 7, 37 or 90): No exudates
Ocular toxicity: inflammation ([1]; sacrifice Day 7, 37 or 90): No inflammation
Ocular toxicity: retinal hemorrhage ([1]; sacrifice Day 7, 37 or 90): No retinal
Ocular toxicity: retinal tears, breaks or detachments ([1]; sacrifice Day 7, 37 or 90): No retinal tears,
Ocular toxicity: retinal vascular compromise ([1]; sacrifice Day 7, 37 or 90): No retinal vascular
number of patients with no material increase in CMT ([2]; 15 DME patients): 7 out of 15 patients
number of subjects with no material change in BCVA ([2]; 15 DME patients): 7 out of 15 subjects
share of treated patients improved three or more lines in BCVA ([2]; 15 DME patients, by study day 90 after 3 intravitreal injections of 2.5 mg): 53%
number of patients improved from nearly legally blind to functional vision in the 20/40 to 20/60 range ([2]; 15 DME patients, three monthly intravitreal injections): four
number of patients with reduction in CMT by 30% to 80% [2, 4]: eight
number of subjects improved BCVA by three or more (three to five) lines [2, 4]: Eight
share of subjects with reduction in OCT central macular thickness of at least 30% [2, 4]: 53%
number of patients with reduction in CMT by 30% to 80% [2, 5]: 8 out of 15 and 8 of 15 patients
number of subjects improved BCVA by three or more (three to five) lines [2, 5]: 8 out of 15 and 8 of 15 subjects
maximum reduction in macular edema (OCT) ([2]; 608 to 103): 505 microns
maximum reduction in macular edema (OCT), relative ([2]; 608 to 103 microns): ~80%
persistence of improvements in BCVA and OCT central macular thickness off treatment [2]: 90 days
persistence of improvements in BCVA and OCT central macular thickness off treatment ([2]; listed as COMPOUND 1): at least 90 days
ERG changes ([2]; in vivo): No ERG changes
corneal decompensation or cataract progression ([2]; in vivo): No corneal decompensation or cataract progression
elevations in IOP ([2]; in vivo): No sustained elevations in IOP
inflammatory reactions in the anterior chamber or vitreous cavity ([2]; in vivo): no reports of inflammatory reactions
retinal tears or retinal detachments ([2]; in vivo): No retinal tears or retinal detachments
vascular occlusions ([2]; in vivo): no vascular occlusions
greater reduction in subretinal neovascularization area than control animals (Phosphate Buffered Saline) (rho/VEGF mice): 37.06%
inhibition of cell adhesion ([3]; HUVEC wound healing model, in 12 hours): 74%
inhibition of HUVEC wound healing ([3]; after 24 hours, Compound 1 10 mM, control peptides 1 mM): 70%
apoptosis of the HUVEC cells ([3]; wound healing assay): without apoptosis
